Results taken from patent US9556139B2, “6-substituted phenoxychroman carboxylic acid derivatives” (Array BioPharma Inc., priority 2008, dated 2017).

Biological target: human DP2 (Homo sapiens (Human), UniProt Q9Y5Y4)
Assay: DP-2 Binding Inhibition Assay (3H-PGD2 binding to membranes of K562 cells expressing DP2)
Settings: read-out: EC50 (Nm) 1% HSA; inhibition of 3H-PGD2 binding, 1% HSA
Procedure: DP-2 Binding Inhibition Assay
The coding sequence of human DP2 was introduced into the human Leukemic cell line K562 by electroporation and stable clones expressing DP2 were obtained by limiting dilution followed by cell surface staining with a rat monoclonal antibody specific for human DP2. Membranes were prepared from one of these DP2 expressing clones and used to determine the ability of compounds of the present invention to inhibit binding of prostaglandin D2 (PGD2) to its receptor DP2 in the presence of one or more of the following serum protein concentrations, 0.1% BSA, 1% HSA or 4% HSA, by the following procedure. Membranes (1.25 μg/well for 0.1% BSA and 6 μg/well for 1% or 4% HSA) were mixed with ^3H-labeled PGD2 and various concentrations of test compounds in 150 μL of binding buffer (50 mM Tris-HCl, pH 7.4, 40 mM MgCl2, 0.1% bovine serum albumin, 0.1% NaN3) in 96-well U-bottom polypropylene plates. After incubation for 60 minutes at room temperature, the assay was transferred to a filtration plate (#MAFB; Millipore Corporation, Bedford, Mass.), and washed three times with binding buffer. Radioactivity was measured by a scintillation counter (TopCount; PerkinElmer Life Sciences, Boston, Mass.). Nonspecific binding was determined by incubations in the presence of 1 μM unlabeled PGD2 or 5 μM of a known DP2 antagonist. EC50 values for inhibition of binding were determined for each compound tested from the inflexion point of a standard 4-parameter logistical curve fitted to the values obtained.

human DP2, sequence (Q9Y5Y4 whole entry): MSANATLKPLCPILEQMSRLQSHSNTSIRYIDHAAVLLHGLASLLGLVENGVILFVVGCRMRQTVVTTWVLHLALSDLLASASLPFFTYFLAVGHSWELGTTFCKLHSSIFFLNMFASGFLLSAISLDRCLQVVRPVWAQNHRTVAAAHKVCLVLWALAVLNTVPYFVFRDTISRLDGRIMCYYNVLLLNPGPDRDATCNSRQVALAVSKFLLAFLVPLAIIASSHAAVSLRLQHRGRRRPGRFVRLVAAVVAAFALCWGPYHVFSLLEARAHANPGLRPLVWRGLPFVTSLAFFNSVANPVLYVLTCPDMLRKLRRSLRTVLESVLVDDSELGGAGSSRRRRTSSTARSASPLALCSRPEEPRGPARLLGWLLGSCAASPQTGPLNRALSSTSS

Row | SMILES | EC50
1 | N#Cc1cc2c(cc1Oc1ccc(C(=O)NC3CCc4ccccc4C3)cc1)OCCC2C(=O)O (stereo not shown) [Example 72, 6-Cyano-7-(4-(1,2,3,4-tetrahydronaphthalen-2-ylcarbamoyl)phenoxy)chroman-4-carboxylic acid] | 36.4 nM
2 | N#Cc1cc2c(cc1Oc1ccc(C(=O)Nc3ccc(Cl)cc3)cc1)OCCC2C(=O)O (stereo not shown) [Example 74, 7-(4-(4-Chlorophenylcarbamoyl)phenoxy)-6-cyanochroman-4-carboxylic acid] | 23.3 nM
3 | N#Cc1cc2c(cc1Oc1ccc(C(=O)Nc3ccc(C(F)(F)F)cc3)cc1)OCCC2C(=O)O (stereo not shown) [Example 75, 6-Cyano-7-(4-(4-(trifluoromethyl)phenylcarbamoyl)phenoxy)chroman-4-carboxylic acid] | 11.9 nM

The next lines start with the values.

Row | EC50 | SMILES
4 | 42.4 nM | N#Cc1cc2c(cc1Oc1ccc(C(=O)NC3Cc4ccc(Cl)cc4C3)cc1)OCCC2C(=O)O (stereo not shown) [Example 73, 7-(4-(5-Chloro-2,3-dihydro-1H-inden-2-ylcarbamoyl)phenoxy)-6-cyanochroman-4-carboxylic acid]
5 | 6.7 nM | N#Cc1cc2c(cc1Oc1ccc(C(=O)Nc3ccc4ccccc4c3)cc1)OCCC2C(=O)O (stereo not shown) [Example 76, 6-Cyano-7-(4-(naphthalen-2-ylcarbamoyl)phenoxy)chroman-4-carboxylic acid]

Same assay, conditions: read-out: EC50 (nM) 4% HSA; inhibition of 3H-PGD2 binding, 4% HSA

Row | SMILES | EC50
6 | O=C(NCCCc1ccc(Cl)cc1)c1ccc(Oc2cc3c(cc2Cl)C(C(=O)O)CCO3)cc1 (stereo not shown) [Example 77, Sodium 6-chloro-7-(4-(3-(4-chlorophenyl)propylcarbamoyl)phenoxy)chroman-4-carboxylate] | 356 nM
7 | O=C(NCCCc1ccccc1)c1ccc(Oc2cc3c(cc2Cl)C(C(=O)O)CCO3)cc1 (stereo not shown) [Example 78, Sodium 6-chloro-7-(4-(3-phenylpropylcarbamoyl)phenoxy)chroman-4-carboxylate] | 681 nM
8 | O=C(NCCc1c(Cl)cccc1Cl)c1ccc(Oc2cc3c(cc2Cl)C(C(=O)O)CCO3)cc1 (stereo not shown) [Example 80, Sodium 6-chloro-7-(4-(2,6-dichlorophenethylcarbamoyl)phenoxy)chroman-4-carboxylate] | 165 nM
9 | O=C(NCCc1ccc(F)cc1F)c1ccc(Oc2cc3c(cc2Cl)C(C(=O)O)CCO3)cc1 (stereo not shown) [Example 81, Sodium 6-chloro-7-(4-(2,4-difluorophenethylcarbamoyl)phenoxy)chroman-4-carboxylate] | 191 nM
10 | O=C(NCCc1cccc(O)c1)c1ccc(Oc2cc3c(cc2Cl)C(C(=O)O)CCO3)cc1 (stereo not shown) [Example 83, Sodium 6-chloro-7-(4-(3-hydroxyphenethylcarbamoyl)phenoxy)chroman-4-carboxylate] | 569 nM
11 | O=C(NCCc1ccc(O)cc1)c1ccc(Oc2cc3c(cc2Cl)C(C(=O)O)CCO3)cc1 (stereo not shown) [Example 84, Sodium 6-chloro-7-(4-(4-hydroxyphenethylcarbamoyl)phenoxy)chroman-4-carboxylate] | 1380 nM
12 | O=C(NCCc1ccc(F)cc1)c1ccc(Oc2cc3c(cc2Cl)C(C(=O)O)CCO3)cc1 (stereo not shown) [Example 85, Sodium 6-chloro-7-(4-(4-fluorophenethylcarbamoyl)phenoxy)chroman-4-carboxylate] | 344 nM
13 | O=C(NCCc1ccc2ccccc2c1)c1ccc(Oc2cc3c(cc2Cl)C(C(=O)O)CCO3)cc1 (stereo not shown) [Example 87, Sodium 6-chloro-7-(4-(2-(naphthalen-2-yl)ethylcarbamoyl)phenoxy)chroman-4-carboxylate] | 234 nM
14 | COc1ccc(OC)c(CCNC(=O)c2ccc(Oc3cc4c(cc3Cl)C(C(=O)O)CCO4)cc2)c1 (stereo not shown) [Example 88, Sodium 6-chloro-7-(4-(2,5-dimethoxyphenethylcarbamoyl)phenoxy)chroman-4-carboxylate] | 203 nM
15 | COc1ccc(Br)cc1CCNC(=O)c1ccc(Oc2cc3c(cc2Cl)C(C(=O)O)CCO3)cc1 (stereo not shown) [Example 90, Sodium 7-(4-(5-bromo-2-methoxyphenethylcarbamoyl)phenoxy)-6-chlorochroman-4-carboxylate] | 153 nM
16 | O=C(NCCc1ccccc1-c1ccccc1)c1ccc(Oc2cc3c(cc2Cl)C(C(=O)O)CCO3)cc1 (stereo not shown) [Example 92, Sodium 7-(4-(2-(biphenyl-2-yl)ethylcarbamoyl)phenoxy)-6-chlorochroman-4-carboxylate] | 111 nM
17 | O=C(NCCc1ccccc1-c1ccccc1Cl)c1ccc(Oc2cc3c(cc2Cl)C(C(=O)O)CCO3)cc1 (stereo not shown) [Example 96, Sodium 6-chloro-7-(4-(2-(2′-chlorobiphenyl-2-yl)ethylcarbamoyl)phenoxy)chroman-4-carboxylate] | 40.2 nM
18 | O=C(NCCc1ccc(F)cc1Cl)c1ccc(Oc2cc3c(cc2Cl)C(C(=O)O)CCO3)cc1 (stereo not shown) [Example 97, Sodium 6-chloro-7-(4-(2-chloro-4-fluorophenethylcarbamoyl)phenoxy)chroman-4-carboxylate] | 190 nM
19 | COc1ccc(CCNC(=O)c2ccc(Oc3cc4c(cc3Cl)C(C(=O)O)CCO4)cc2)c(Cl)c1 (stereo not shown) [Example 100, Sodium 6-chloro-7-(4-(2-chloro-4-methoxyphenethylcarbamoyl)phenoxy)chroman-4-carboxylate] | 619 nM
20 | COc1cc(F)ccc1CCNC(=O)c1ccc(Oc2cc3c(cc2Cl)C(C(=O)O)CCO3)cc1 (stereo not shown) [Example 101, Sodium 6-chloro-7-(4-(4-fluoro-2-methoxyphenethylcarbamoyl)phenoxy)chroman-4-carboxylate] | 292 nM
21 | Cc1ccc(-c2cccc(NC(=O)c3ccc(Oc4cc5c(cc4C#N)C(C(=O)O)CCO5)cc3)c2)cc1 (stereo not shown) [Example 107, 6-Cyano-7-(4-(4′-methylbiphenyl-3-ylcarbamoyl)phenoxy)chroman-4-carboxylic acid] | 115 nM
22 | Cc1cccc(-c2cccc(NC(=O)c3ccc(Oc4cc5c(cc4C#N)C(C(=O)O)CCO5)cc3)c2)c1 (stereo not shown) [Example 108, 6-Cyano-7-(4-(3′-methylbiphenyl-3-ylcarbamoyl)phenoxy)chroman-4-carboxylic acid] | 69.3 nM
23 | Cc1cccc(-c2cccc(NC(=O)c3ccc(Oc4cc5c(cc4C#N)C(C(=O)O)CCO5)cc3)c2)c1C (stereo not shown) [Example 109, 6-Cyano-7-(4-(2′,3′-dimethylbiphenyl-3-ylcarbamoyl)phenoxy)chroman-4-carboxylic acid] | 104 nM
24 | O=C(NCCc1ccc2c(c1)OCO2)c1ccc(Oc2cc3c(cc2Cl)C(C(=O)O)CCO3)cc1 (stereo not shown) [Example 110, Sodium 7-(4-(2-(benzo[d][1,3]dioxol-5-yl)ethylcarbamoyl)phenoxy)-6-chlorochroman-4-carboxylate] | 607 nM

More lines, now with the values ahead:

Row | EC50 | SMILES
25 | 98.9 nM | O=C(NCCc1ccccc1Cl)c1ccc(Oc2cc3c(cc2Cl)C(C(=O)O)CCO3)cc1 (stereo not shown) [Example 79, Sodium 6-chloro-7-(4-(2-chlorophenethylcarbamoyl)phenoxy)chroman-4-carboxylate]
26 | 473 nM | O=C(NCCc1c(F)cccc1Cl)c1ccc(Oc2cc3c(cc2Cl)C(C(=O)O)CCO3)cc1 (stereo not shown) [Example 82, Sodium 6-chloro-7-(4-(2-chloro-6-fluorophenethylcarbamoyl)phenoxy)chroman-4-carboxylate]
27 | 126 nM | O=C(NCCc1cccc2ccccc12)c1ccc(Oc2cc3c(cc2Cl)C(C(=O)O)CCO3)cc1 (stereo not shown) [Example 86, Sodium 6-chloro-7-(4-(2-(naphthalen-1-yl)ethylcarbamoyl)phenoxy)chroman-4-carboxylate]
28 | 146 nM | COc1cccc(CCNC(=O)c2ccc(Oc3cc4c(cc3Cl)C(C(=O)O)CCO4)cc2)c1OC (stereo not shown) [Example 89, Sodium 6-chloro-7-(4-(2,3-dimethoxyphenethylcarbamoyl)phenoxy)chroman-4-carboxylate]
29 | 192 nM | O=C(NCCc1ccccc1Br)c1ccc(Oc2cc3c(cc2Cl)C(C(=O)O)CCO3)cc1 (stereo not shown) [Example 91, Sodium 7-(4-(2-bromophenethylcarbamoyl)phenoxy)-6-chlorochroman-4-carboxylate]
30 | 107 nM | O=C(NCCc1ccccc1C1CC1)c1ccc(Oc2cc3c(cc2Cl)C(C(=O)O)CCO3)cc1 (stereo not shown) [Example 93, Sodium 6-chloro-7-(4-(2-cyclopropylphenethylcarbamoyl)phenoxy)chroman-4-carboxylate]
31 | 287 nM | O=C(NCCc1ccccc1-c1ccc(Cl)cc1)c1ccc(Oc2cc3c(cc2Cl)C(C(=O)O)CCO3)cc1 (stereo not shown) [Example 94, Sodium 6-chloro-7-(4-(2-(4′-chlorobiphenyl-2-yl)ethylcarbamoyl)phenoxy)chroman-4-carboxylate]
32 | 91.8 nM | O=C(NCCc1ccccc1-c1cccc(Cl)c1)c1ccc(Oc2cc3c(cc2Cl)C(C(=O)O)CCO3)cc1 (stereo not shown) [Example 95, Sodium 6-chloro-7-(4-(2-(3′-chlorobiphenyl-2-yl)ethylcarbamoyl)phenoxy)chroman-4-carboxylate]
33 | 193 nM | O=C(NCCc1ccc(C(F)(F)F)cc1Cl)c1ccc(Oc2cc3c(cc2Cl)C(C(=O)O)CCO3)cc1 (stereo not shown) [Example 98, Sodium 6-chloro-7-(4-(2-chloro-4-(trifluoromethyl)phenethylcarbamoyl)phenoxy)chroman-4-carboxylate]
34 | 392 nM | O=C(NCCc1cc(Cl)ccc1Cl)c1ccc(Oc2cc3c(cc2Cl)C(C(=O)O)CCO3)cc1 (stereo not shown) [Example 103, Sodium 6-chloro-7-(4-(2,5-dichlorophenethylcarbamoyl)phenoxy)chroman-4-carboxylate]
